What was measured:
rat brain homogenate = experiment: Lipid peroxidation (MDA/TBA) induced by FeCl2 and ascorbic acid; type: biochemical; conditions: 10 µM compound; for MDA concentration: oxidation by 0.1% FeCl2 and 1 mM ascorbic acid, 1 h 37 °C, control 9.644 ± 1.570
Procedure: The antioxidant potential of the new flavone derivatives was assessed based on the analysis of malondialdehyde concentration formed as a product of lipid oxidation stimulated by iron (II) ions.
After preparation, the brain was placed on an ice plate and washed with cold 0.9% NaCl. 10% (m/v) brain solution was obtained by homogenization in cold 10 mM TRIS-HCl buffer, pH = 7.5. The homogenate was centrifuged (2000 rpm, 10 min, 4 °C) to obtain supernatant 1 (S1).
100 µM stock solutions of test compounds in DMSO were prepared. The test compound solution was added to a […] S1 homogenate to a final concentration of 10 µM.
The oxidation reaction was induced by adding to the samples with or without the test compounds freshly prepared solutions: 0.1% FeCl2 (0.2 mL) and 1 mM ascorbic acid (0.4 mL). After incubation for 1 h at 37 °C, the reaction was stopped by adding 8.1% sodium dodecyl sulfate (SDS) solution. In order to determine the concentration of MDA, the acetic acid/HCl buffer at pH = 3.4 and 120 μL of 0.8% thiobarbituric acid (TBA) solution at pH = 6 were added to the samples. The samples were incubated for 1 h at 100 °C. After incubation, the samples were cooled on ice and centrifuged for 10 min at 4000 RPM. The absorbance was measured at a wavelength of 532 nm. Blank content: 0.5 mL of acetate buffer + 0.5 mL of TBA solution.
Calculation of malondialdehyde (MDA) concentration (Equation (1)):(1) MDA concentration=∆ A532 nm × 1.56 ×10^−6 [nmol MDA/h/g tissue]

[1] = test system: human prostate cancer cells (PC3); experiment: MTT dye reduction viability test, PC3; type: cell-based; conditions: for IC50 / viability at 10 µM / viability at 20 µM / viability at 40 µM / viability at 60 µM / viability at 80 µM / viability at 100 µM: Homo sapiens; for IC50: 72 h exposure, MTT, mean ± SD, read-out: Cytotoxic activity IC50, PC3; for viability at 10 µM: PC3, 10 µM; for viability at 10 µM / viability at 20 µM / viability at 40 µM / viability at 60 µM / viability at 80 µM / viability at 100 µM: 72 h, representative MTT result (Table S1 A); for viability at 20 µM: PC3, 20 µM; for viability at 40 µM: PC3, 40 µM; for viability at 60 µM: PC3, 60 µM; for viability at 80 µM: PC3, 80 µM; for viability at 100 µM: PC3, 100 µM, read-out: Cells viability
Procedure: (§1) We have chosen two types of cell culture lines: human prostate cancer cells (PC3) and normal human immortal keratinocyte cells (HaCaT) (Table 1).
(§2) Human prostate cancer cells (PC3) and human immortal keratinocyte cell line from adult human skin (HaCaT) were obtained from American Type Culture Collection (Teddington, UK) and cultured according to its instructions RPMI 1640 (L0490) medium or DMEM (L0102) medium, respectively, in a 95% air and 5% CO2 humidified incubator at 37 °C. Both media (Biowest) were supplemented with 10% fetal bovine serum (FBS), 100 U/mL penicillin and 100 μg/mL streptomycin. 10 mM stock solutions of tested compounds in DMSO were prepared.
(§3) To assess the cells growth inhibition, the MTT dye reduction test was preformed based on the method described by Präbst et al.. Both PC3 and HaCaT cells (1 × 10^3/well) were seeded into 96-well plates and incubated for 24 h to attach to the bottom of the well in appropriate medium (200 μL) and treated with tested compounds (0–100 μM). The medium with compounds was removed after 72 h and MTT (0.5 mg/mL) in fresh growth medium without serum was added to each well. The plates were incubated in dark for 4 h at 37 °C. Then, the solution in each well was removed and refilled with 100 μL DMSO: isopropanol (1:1) to dissolve formazon crystals. The optical density was measured with an UVM 340 (ASYS Hitech GmbH, Austria) microplate reader at 570 nm. Replicates of three wells for each dosage, including vehicle control, were analyzed for each experiment. The experiments were conducted in triplicate. The results are expressed as IC50 values. The value of IC50 was estimated using CompuSyn version 1.0.

[2] = test system: human immortal keratinocyte cells (HaCaT); experiment: MTT dye reduction viability test, HaCaT; type: cell-based
Procedure: as §1, §2, §3

[3] = MTT dye reduction viability test, HaCaT; type: cell-based, human; conditions: human
Procedure: as §1, §2, §3

[4] = 72 h exposure, MTT, mean ± SD, read-out: Cytotoxic activity IC50, HaCaT

CCCCCCCCC=CCCCCCCCC(=O)Oc1ccc2c(c1)C(=O)CC(c1ccccc1)O2 (centres unmarked) [6-Oleic-Flavanone, 6-hydroxy-flavanone oleic ester]
MDA concentration (rat brain homogenate): 8.326 ± 0.490 mM × 10^−3 | melting point: 46.2 to 47.1 °C | IC50 [1]: 38.1 ± 3.24 µM | viability at 10 µM [1]: 100% | viability at 20 µM [1]: 70.9% | viability at 40 µM [1]: 41.4% | viability at 60 µM [1]: 19.3% | viability at 80 µM [1]: 13.3% | viability at 100 µM [1]: 6.81% | IC50 [2, 4]: 53.3 ± 6.87 µM | IC50 at 72 h ([3]; HaCaT cells (immortal keratinocytes), 72 h exposure, MTT, mean ± SD, read-out: Cytotoxic activity IC50, HaCaT): 53.3 ± 6.87 µM | viability at 72 h, 10 µM ([3]; HaCaT cells (immortal keratinocytes), HaCaT, 10 µM, 72 h, representative MTT result (Table S1 B)): 97.8% | viability at 72 h, 20 µM ([3]; HaCaT cells (immortal keratinocytes), HaCaT, 20 µM, 72 h, representative MTT result (Table S1 B)): 70% | viability at 72 h, 40 µM ([3]; HaCaT cells (immortal keratinocytes), HaCaT, 40 µM, 72 h, representative MTT result (Table S1 B)): 75.7% | viability at 72 h, 60 µM ([3]; HaCaT cells (immortal keratinocytes), HaCaT, 60 µM, 72 h, representative MTT result (Table S1 B)): 26.4% | viability at 72 h, 80 µM ([3]; HaCaT cells (immortal keratinocytes), HaCaT, 80 µM, 72 h, representative MTT result (Table S1 B)): 26.5% | viability at 72 h, 100 µM ([3]; HaCaT cells (immortal keratinocytes), HaCaT, 100 µM, 72 h, representative MTT result (Table S1 B), read-out: Cells viability): 26.5%

O=c1cc(-c2ccccc2)oc2cc(O)ccc12 [7-Hydroxy-Flavone, 7-hydroxy-flavone, reference compound]
MDA concentration (rat brain homogenate): 7.702 ± 1.080 mM × 10^−3 | reduction of the level of MDA compared to the control sample (rat brain homogenate; rat brain homogenate): 20.14% | IC50 [1]: > 100 µM | viability at 10 µM [1]: 123% | viability at 20 µM [1]: 117% | viability at 40 µM [1]: 111% | viability at 60 µM [1]: 95.4% | viability at 80 µM [1]: 65% | viability at 100 µM [1]: 62.7% | reduction of PC3 cells viability compared to control cells ([1]; PC3, 72 h, concentration not given): 38% | cytotoxic activity towards HaCaT cells (in words) ([2]; HaCaT, 0–100 μM, 72 h): did not exhibit cytotoxic activity | IC50 [3, 4]: > 100 µM | viability at 10 µM ([3]; HaCaT, 10 µM, 72 h, representative MTT result (Table S1 B), read-out: Cells viability): 93.8% | viability at 20 µM ([3]; HaCaT, 20 µM, 72 h, representative MTT result (Table S1 B), read-out: Cells viability): 65.8% | viability at 40 µM ([3]; HaCaT, 40 µM, 72 h, representative MTT result (Table S1 B), read-out: Cells viability): 69.7% | viability at 60 µM ([3]; HaCaT, 60 µM, 72 h, representative MTT result (Table S1 B), read-out: Cells viability): 96.2% | viability at 80 µM ([3]; HaCaT, 80 µM, 72 h, representative MTT result (Table S1 B), read-out: Cells viability): 97.2% | viability at 100 µM ([3]; HaCaT, 100 µM, 72 h, representative MTT result (Table S1 B), read-out: Cells viability): 92.4%

Source: paper PMC8777613, “Effect of Hydroxyl Groups Esterification with Fatty Acids on the Cytotoxicity and Antioxidant Activity of Flavones” (Molecules, 2022)
